Source: patent US20250236614A1, “BICYCLIC TETRAHYDROAZEPINE DERIVATIVES” (Hoffmann-La Roche Inc., priority 2022, published 2025)

Key:
[1] = biological target: T1, hDGKzeta(1-928)-N-His (DGKZ) (Homo sapiens, UniProt Q13574); assay: In vitro DGK inhibition assay (ADP-Glo, in house), DGK zeta; type: biochemical; conditions: isomer A; 2 nM DGK ζ, 50 μM ATP, 125 μM DLG in liposomes, 1 hour reaction; read-out: DGKzeta ADP Glo assay IC50
T1 construct: hDGKzeta(1-928)-N-His; His (N)
Procedure: DGK α and ζ kinase use ATP to phosphorylate the substrate 1,2-dilauroyl-sn-glycerol (DLG, incorporated in the liposomes). ATP is converted to ADP as a result of this enzymatic reaction.
After the kinase reaction, an ATP-depletion reagent is added to terminate the kinase reaction and deplete any remaining ATP, leaving only ADP. Second, a detection reagent is added to simultaneously convert ADP to ATP and allow the newly synthesized ATP to be converted to light using a coupled luciferase/luciferin reaction.
Full length DGKA and Z were expressed in Sf21 insect cells by infecting the cells with the baculovirus stock at MOI of 2. Purification of both enzymes was performed as previously described by Takahashi et al., PeerJ, 2018 (Takahashi, D.; Sakane, F. Expression and purification of human diacylglycerolkinase alpha from baculovirus-infected insect cells for structural studies. PeerJ2018, 6, No. e5449).
A concentrated liposome solution was prepared in assay buffer without DTT and BSA: 2 mM of DLG in 21 mM of total liposome (2 mM DLG/8 mM PS/11 mM PC). The reaction mixtures contain the assay buffer with a final DLG concentration of 125 μM ATP concentrations of 25 μM (for DGKA assay) or 50 μM (for DGKZ assay). The reactions were started by addition of DGK α and ζ kinases at 4 nM and 2 nM final concentrations, respectively. After 1 hour reaction, the amount of ADP formed was detected with the ADP-Glo kinase assay (Promega) according to the manufacturer instructions. Compounds were added in 11I-points dose response, starting at 10 mM, 1:3 dilutions, with a final DMSO concentration of […]. The multidrop combi was used as a liquid handler and luminescence was read with 0.5 s by the envision reader (PE).

primary human T-cells = assay: IL2 secretion measurements in CD3-stimulated T-cells; type: cell-based; conditions: Homo sapiens, T-cell, isomer A; for EC50: CD3 antibody-stimulated T-cells, IL2 in supernatant after 24 hours, read-out: Tcell IL2 CD3 EC50; for Emax: CD3 condition, 24 hours, 20 μM reference compound A1 = 100%, DMSO neutral control, read-out: Emax IL2 (% activation)
Procedure: As readouts for T-cell activation, IL2 secretion after 24 hours and proliferation after 5 days was measured. Increases in IL2 secretion and proliferation upon compound treatment were assessed as the % of the maximum of reference compound A1. WO 2016/139181 discloses reference compound A1 as example 70. As a counter screen and to make sure that no unwanted TCR-independent activation was triggered, PBS conditions were run for all compounds.
Expanded primary human T-cells were thawed and cultured in RPMI 1640 (Gibco, #61870-010)+5% human serum (HS, Sigma, #H3667)+1 mM Sodium Pyruvate (Gibco, #11360-039)+50 μM 2-mercaptoethanol (Gibco, #31350-010) and lx Pen-Strep (Life Technologies, #15140122) medium at density of 2 Mio/ml for 3 hours in 5% CO2, 37° C. and 95% humidity. For coating of plates, […] or PBS++ with CD3 antibody (concentration depending on donor and determined by CD3 titrations) was added 100 μl/well to Poly-D Lysine coated 96-well plates. Plates were sealed and incubated at room temperature for 3 hours on a table-top rocking platform. After incubation, plates were washed once with PBS−− and filled with 40 μl/well culture medium only. Compounds were then added (see next section) to medium only plates. After 3 hours of culturing the T-cells, cells were filtered through a cell strainer (Miltenyi Biotech, #130-041-407), counted again and concentration was adjusted to 1.25 Mio/ml.
Cells were then seeded 80 μl/well to the 40 μl/well including dispensed compounds according to plate layout. By adding cells, compounds were further diluted 1:3, and resulting in 100k cells/120 μl/well. After 24 hours 40 μl of supernatant was collected carefully from the top while not disturbing the cells and transferred into a round bottom 96 well plate. Collected and frozen supernatant was used for detection of IL2 using the IL-2 Human ProQuantum Immunoassay Kit (Invitrogen) or using the Human IL-2 ELISA Kit (Thermo Fisher).
Compounds were added in a 5 or 6 pt dose response with the Tecan D300e Digital Dispenser, all conditions 3 times more concentrated than the end-concentration, since cells are added afterwards (80 μl cells to 40 μl prepared medium with treatment). The DR was starting at 20 μM or 10 μM final top concentration and a dilution factor of 3.333. The positive control was the reference compound A1 that was added in a dose response as well, additionally to 3 wells of only 20 μM representing the positive stimulator control. All wells were normalized with DMSO to a final concentration of 0.6% (0.2% end-concentration).
The immunoassay is done following the manufacturer's manual (Invitrogen, #A35603).
Additional information: For the immunoassay, MicroAmp™ EnduraPlate™ Optical 384-Well plates are used. Frozen supernatant is thawed and centrifuged for 5 minutes at 1000×g, both steps at 4° C. After centrifugation, required sample amount is taken from the top, and in a separate LightCycler V-bottom plate (working plate) diluted with assay dilution buffer, dilution factor depending on the PBS or CD3 condition but at least 1:3. IL-2 standard and blanks are prepared in the same V-bottom plate, standard with a range of […] (extended version). After preparation, […] of sample dilutions or standard/blanks are transferred to the optical 384-well plate (assay plate) and the 10 μl reaction protocol is being followed. For measurement, the QuantStudio 12K Flex system is used. Raw data is extracted and IL-2 concentrations are calculated with the Thermo Fisher online app (apps.thermofisher.com/apps/proquantum).
ELISA is done following the manufacturer's manual (Thermo Fisher Scientific, #88-7025-88).
Additional information: For the ELISA Nunc MaxiSorp 96 well plates are used. Frozen supernatant is thawed and centrifuged for 5 minutes at 1000×g, both steps at 4° C. After that, required sample amount is taken from the top, and in a separate V-bottom plate diluted with ELISA diluent, dilution factor depending on the PBS or CD3 condition. […]

T1 sequence (Q13574 whole entry): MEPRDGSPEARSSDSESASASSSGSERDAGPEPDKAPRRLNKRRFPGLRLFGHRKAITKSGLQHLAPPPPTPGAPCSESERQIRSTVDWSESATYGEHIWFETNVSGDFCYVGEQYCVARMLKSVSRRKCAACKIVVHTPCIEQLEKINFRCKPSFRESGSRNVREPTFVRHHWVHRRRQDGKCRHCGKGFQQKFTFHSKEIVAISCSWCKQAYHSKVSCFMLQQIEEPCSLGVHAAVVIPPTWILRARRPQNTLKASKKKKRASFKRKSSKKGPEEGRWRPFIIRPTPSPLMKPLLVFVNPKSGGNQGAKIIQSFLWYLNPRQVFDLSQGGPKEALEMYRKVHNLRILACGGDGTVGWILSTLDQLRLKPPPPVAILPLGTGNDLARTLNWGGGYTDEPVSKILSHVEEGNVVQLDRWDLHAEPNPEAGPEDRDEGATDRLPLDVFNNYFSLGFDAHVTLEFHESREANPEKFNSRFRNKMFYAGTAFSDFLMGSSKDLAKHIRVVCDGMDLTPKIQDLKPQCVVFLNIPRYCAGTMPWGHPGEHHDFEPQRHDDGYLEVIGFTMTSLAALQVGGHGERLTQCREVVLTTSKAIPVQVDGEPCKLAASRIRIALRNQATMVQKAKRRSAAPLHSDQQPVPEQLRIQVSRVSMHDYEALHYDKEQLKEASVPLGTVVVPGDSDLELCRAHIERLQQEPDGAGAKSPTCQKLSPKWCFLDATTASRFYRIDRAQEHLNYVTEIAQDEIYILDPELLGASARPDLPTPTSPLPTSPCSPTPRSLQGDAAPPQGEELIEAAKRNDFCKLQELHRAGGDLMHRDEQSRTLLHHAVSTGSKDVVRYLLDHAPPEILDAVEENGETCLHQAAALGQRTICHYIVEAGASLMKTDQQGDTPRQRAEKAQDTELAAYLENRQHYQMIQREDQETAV

SMILES	IC50 [1] [µM]	EC50 (primary human T-cells) [µM]	Emax (primary human T-cells) [%]
CC(C)(C)c1nnc(-c2cc3c(cc2F)C(F)(F)CC(N)C(=O)N3Cc2ccc(OC(F)(F)F)cc2)o1 (stereo not drawn) [Example 1, 3-amino-8-(5-tert-butyl-1,3,4-oxadiazol-2-yl)-5,5,7-trifluoro-1-[[4-(trifluoromethoxy)phenyl]methyl]-3,4-dihydro-1-benzazepin-2-one]	19.9	1.05	96
COC(=O)N1CC2CC(c3nnc(-c4cc5c(cc4F)C(F)(F)CC(N)C(=O)N5Cc4ccc(-c5noc(C(F)(F)F)n5)cc4)o3)(C2)C1 (single isomer, unassigned) [Example 42]	2.22	2.89	129
CC(C)(c1nnc(-c2cc3c(cc2F)C(F)(F)C[C@@H](N)C(=O)N3Cc2ccc(-c3ccc(C(F)(F)F)cn3)cc2)o1)S(C)(=O)=O (single isomer, unassigned) [Example 8]	16.1	0.373	69
CC(C)(c1nnc(-c2cc3c(cc2F)C(F)(F)C[C@@H](N)C(=O)N3Cc2ccc(-c3noc(C(F)(F)F)n3)cc2)o1)S(C)(=O)=O (single isomer, unassigned) [Example 16]	14.9	1.46	183
COC(=O)N1CC2CC(c3nnc(-c4cc5c(cc4F)C(F)(F)C[C@@H](N)C(=O)N5Cc4ccc(Cl)cc4)o3)(C2)C1 (single isomer, unassigned) [Example 36]	5.92	0.856	53
COCCN1CC(c2nnc(-c3cc4c(cc3F)C(F)(F)C[C@@H](N)C(=O)N4Cc3ccc(-c4ccc(C(F)(F)F)cn4)cc3)o2)CC(F)(F)C1 (single isomer, unassigned) [Example 34]	11.1	> 10	31
N[C@@H]1CC(F)(F)c2cc(F)c(-c3nnc(N4CCOC5(CC5)C4)o3)cc2N(Cc2ccc(-c3noc(C(F)(F)F)n3)cc2)C1=O (single isomer, unassigned) [Example 17]	3.25	3.79	107
CC(C)(c1nnc(-c2cc3c(cc2F)C(F)(F)C[C@@H](N)C(=O)N3Cc2ccc(-c3ccc(OC(F)(F)F)cn3)cc2)o1)S(C)(=O)=O (single isomer, unassigned) [Example 26]	8.82	0.301	97
CC(C)(C#N)c1nnc(-c2cc3c(cc2F)C(F)(F)C[C@@H](N)C(=O)N3Cc2ccc(-n3ccc(C(F)(F)F)n3)cc2)o1 (single isomer, unassigned) [Example 30]	10.2	2.61	77
CC(C)(C#N)c1nnc(-c2cc3c(cc2F)C(F)(F)C[C@@H](N)C(=O)N3Cc2ccc(-c3ccc(OC(F)F)cn3)cc2)o1 (single isomer, unassigned) [Example 41]	8.22	0.884	131
COC(F)(c1nnc(-c2cc3c(cc2F)C(F)(F)C[C@H](N)C(=O)N3Cc2ccc(OC(F)(F)F)cc2)o1)C(F)(F)F (single isomer, unassigned) [Example 4]	8.93	0.821	91
COc1ccc(-c2ccc(CN3C(=O)[C@H](N)CC(F)(F)c4cc(F)c(-c5nnc(C(C)(C)S(C)(=O)=O)o5)cc43)cc2)cc1 (single isomer, unassigned) [Example 10]	11.5	0.379	57

Continued by falling IC50 [1], values first:

IC50 [1] [µM]	EC50 (primary human T-cells) [µM]	SMILES	Emax (primary human T-cells) [%]
2.85	0.457	CC(F)(F)c1ccc(-c2ccc(CN3C(=O)[C@H](N)CC(F)(F)c4cc(F)c(-c5nnc(C(C)(C)C#N)o5)cc43)cc2)nc1 (single isomer, unassigned) [Example 37]	136
2.5	> 10	CC(C)(C#N)c1nnc(-c2cc3c(cc2F)C(F)(F)C[C@@H](N)C(=O)N3Cc2ccc(-c3ccc(C(F)F)cn3)cc2)o1 (single isomer, unassigned) [Example 40]	27
2.4	0.0768	CC(C)(C#N)c1nnc(-c2cc3c(cc2F)C(F)(F)C[C@@H](N)C(=O)N3Cc2ccc(-c3ccc(OC(F)(F)F)cn3)cc2)o1 (single isomer, unassigned) [Example 24]	140
2.4	2.33	CC(C)(c1nnc(-c2cc3c(cc2F)C(F)(F)CC(N)C(=O)N3Cc2ccc(Oc3ccccc3)cc2)o1)S(C)(=O)=O (racemic) [Example 5, (3S)-3-amino-5,5,7-trifluoro-8-[5-(1-methyl-1-methylsulfonyl-ethyl)-1,3,4-oxadiazol-2-yl]-1-[(4-phenoxyphenyl)methyl]-3,4-dihydro-1-benzazepin-2-one and (3R)-3-amino-5,5,7-trifluoro-8-[5-(1-methyl-1-methylsulfonyl-ethyl)-1,3,4-oxadiazol-2-yl]-1-[(4-phenoxyphenyl)methyl]-3,4-dihydro-1-benzazepin-2-one]	165
2.26	> 10	CCN1CC(c2nnc(-c3cc4c(cc3F)C(F)(F)C[C@@H](N)C(=O)N4Cc3ccc(OC(F)(F)F)cc3)o2)CC(F)(F)C1 (single isomer, unassigned) [Example 13]	58
2.14	1.01	CC(C)(C#N)c1nnc(-c2cc3c(cc2F)C(F)(F)C[C@@H](N)C(=O)N3Cc2ccc(-n3nnc(C(F)(F)F)n3)cc2)o1 (single isomer, unassigned) [Example 20]	161
1.82	> 2.73	CC(C)(C#N)c1nnc(-c2cc3c(cc2F)C(F)(F)C[C@@H](N)C(=O)N3Cc2ccc(-c3cc(C(F)(F)F)ccn3)cc2)o1 (single isomer, unassigned) [Example 27]	181
1.73	0.28	CC(C)(C)c1nnc(-c2cc3c(cc2F)C(F)(F)C[C@@H](N)C(=O)N3Cc2ccc(OC3CCCC3)cc2)o1 (single isomer, unassigned) [Example 7]	94
